Assay results taken from ChEMBL document CHEMBL1201862, “PubChem BioAssay data set” (2004).
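Test compounds were applied to cells in 96-well plates for 48 hours at 5 doses. Here, GI50 denotes the concentration required for 50% inhibition of growth.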 Calls of active or inactive are those of the source. No stated cut-off is given here; in the data, active = GI50 up to about 1.1 µM and inactive = higher.

Legend:
Test in all cases: growth of human tumour cells (NCI), 48 h
M14 = test system: M14
IGROV-1 = test system: IGROV-1
OVCAR-3 = test system: OVCAR-3
COLO 205 = test system: COLO 205
SR = test system: SR
CCRF-CEM = test system: CCRF-CEM
HCT-116 = test system: HCT-116
KM12 = test system: KM12
UACC-257 = test system: UACC-257
SW-620 = test system: SW-620
786-0 = test system: 786-0
SK-MEL-5 = test system: SK-MEL-5
OVCAR-4 = test system: OVCAR-4
A549 = test system: A549
CAKI-1 = test system: CAKI-1
UACC-62 = test system: UACC-62
HOP-92 = test system: HOP-92

Measured: GI50

CC#Cc1c(C#CC)c(OC)c2c(c1OC)C(=O)c1ccccc1C2=O
inactive: M14 33.6 µM | IGROV-1 73.6 µM | OVCAR-3 > 100 µM | COLO 205 > 100 µM | SR 46.6 µM | CCRF-CEM > 100 µM | HCT-116 15.9 µM | KM12 > 100 µM | UACC-257 > 100 µM | SW-620 > 100 µM | 786-0 23.3 µM | SK-MEL-5 49.1 µM | OVCAR-4 > 100 µM | A549 88.3 µM | CAKI-1 47.9 µM | UACC-62 23.9 µM

O=C(Nc1cc(C(F)(F)F)ccc1Cl)C(=O)C(C(=O)c1ccc2ccccc2c1)C1OC(=O)c2ccccc21 (stereo not drawn)
inactive: M14 12.2 µM | IGROV-1 23.3 µM | OVCAR-3 13.9 µM | COLO 205 10.4 µM | SR 2.62 µM | CCRF-CEM 4.11 µM | HCT-116 4.8 µM | KM12 13.3 µM | UACC-257 10 µM | SW-620 6.35 µM | HOP-92 11.8 µM | 786-0 5.26 µM | SK-MEL-5 7.69 µM | OVCAR-4 18 µM | A549 9.57 µM | CAKI-1 7.21 µM | UACC-62 7.26 µM

NNC(=S)N/N=C(/C(=O)Nc1cc(Cl)ccc1Cl)C1C(=O)Nc2ccccc2[S+]1[O-] (stereo not drawn)
inactive: M14 > 100 µM | IGROV-1 > 100 µM | OVCAR-3 > 100 µM | COLO 205 > 100 µM | SR 94.2 µM | CCRF-CEM > 100 µM | HCT-116 > 100 µM | KM12 > 100 µM | UACC-257 > 100 µM | SW-620 > 100 µM | HOP-92 > 100 µM | 786-0 > 100 µM | SK-MEL-5 > 100 µM | OVCAR-4 > 100 µM | A549 73.3 µM | CAKI-1 > 100 µM | UACC-62 > 100 µM

CCN1CCC(O)(c2ccc(OC)cc2)C(C(=O)c2ccc(OC)cc2)C1 (stereo not drawn)
inactive: M14 15.7 µM | IGROV-1 > 100 µM | OVCAR-3 17.6 µM | COLO 205 22.9 µM | SR 22.7 µM | HCT-116 22.8 µM | KM12 20.5 µM | UACC-257 20.6 µM | SW-620 10.8 µM | 786-0 13.3 µM | SK-MEL-5 15.3 µM | OVCAR-4 17.7 µM | A549 18.1 µM | CAKI-1 17.2 µM | UACC-62 16.9 µM

C/C(CN1C(=O)c2ccccc2C1=O)=N\NS(=O)(=O)c1ccc(F)cc1
inactive: M14 > 100 µM | IGROV-1 > 100 µM | OVCAR-3 > 100 µM | COLO 205 > 100 µM | SR > 100 µM | CCRF-CEM > 100 µM | HCT-116 > 100 µM | KM12 > 100 µM | UACC-257 > 100 µM | SW-620 > 100 µM | 786-0 > 100 µM | SK-MEL-5 > 100 µM | OVCAR-4 > 100 µM | A549 > 100 µM | CAKI-1 > 100 µM | UACC-62 > 100 µM

CCOC(=O)Cc1csc(Nc2ccc(OCC)cc2)n1
inactive: IGROV-1 > 100 µM | OVCAR-3 86.3 µM | COLO 205 > 100 µM | SR 73.8 µM | HCT-116 > 100 µM | KM12 > 100 µM | UACC-257 > 100 µM | SW-620 > 100 µM | HOP-92 47.4 µM | 786-0 > 100 µM | OVCAR-4 > 100 µM | A549 > 100 µM

N#CCc1nnc(N)o1
inactive: M14 > 100 µM | IGROV-1 > 100 µM | OVCAR-3 > 100 µM | SR > 100 µM | CCRF-CEM > 100 µM | HCT-116 > 100 µM | KM12 > 100 µM | UACC-257 > 100 µM | SW-620 > 100 µM | HOP-92 > 100 µM | 786-0 > 100 µM | A549 > 100 µM | CAKI-1 > 100 µM | UACC-62 > 100 µM

Cc1c(CCl)c(=O)oc2c(C)c3occ(CCl)c(=O)c3cc12
inactive: M14 17 µM | IGROV-1 20.3 µM | OVCAR-3 > 100 µM | COLO 205 16 µM | CCRF-CEM 3.18 µM | KM12 > 100 µM | UACC-257 > 100 µM | SW-620 > 100 µM | 786-0 > 100 µM | SK-MEL-5 > 100 µM | A549 > 100 µM | UACC-62 16.3 µM

CCCCCCCc1cc(OC(=O)c2c(C)cc(OC)cc2O)cc(O)c1C(=O)O
inactive: M14 21.3 µM | IGROV-1 22.7 µM | OVCAR-3 14.6 µM | COLO 205 20.7 µM | CCRF-CEM 24.7 µM | KM12 23.1 µM | UACC-257 30.4 µM | SW-620 26.2 µM | HOP-92 26 µM | 786-0 19 µM | SK-MEL-5 21.6 µM | OVCAR-4 28.1 µM | A549 29.9 µM | CAKI-1 22.5 µM | UACC-62 21 µM

CN(C)CCn1c2ccccc2c2nc3cc4ccccc4cc3nc21
inactive: M14 4.1 µM | IGROV-1 2.08 µM | OVCAR-3 10.6 µM | COLO 205 1.87 µM | CCRF-CEM 2.88 µM | HCT-116 3.79 µM | KM12 3.74 µM | SW-620 3.48 µM | 786-0 3.23 µM | SK-MEL-5 10.1 µM | OVCAR-4 7.91 µM | A549 3.67 µM | CAKI-1 4.91 µM | UACC-62 9.14 µM

O=C1CC2C(=O)N(Cc3ccccc3)C1C=C2S(=O)(=O)c1ccccc1 (stereo not drawn)
inactive: M14 > 100 µM | IGROV-1 > 100 µM | OVCAR-3 > 100 µM | COLO 205 > 100 µM | SR > 100 µM | CCRF-CEM > 100 µM | HCT-116 > 100 µM | KM12 > 100 µM | UACC-257 > 100 µM | SW-620 > 100 µM | HOP-92 > 100 µM | 786-0 > 100 µM | SK-MEL-5 > 100 µM | OVCAR-4 > 100 µM | A549 > 100 µM | UACC-62 > 100 µM

COc1ccc(C2=C3c4cc(OC)c(OC)cc4CCN3C(=S)SS2)cc1OC
inactive: M14 98.2 µM | IGROV-1 > 100 µM | OVCAR-3 > 100 µM | COLO 205 > 100 µM | CCRF-CEM 46.5 µM | HCT-116 > 100 µM | KM12 66.7 µM | UACC-257 72.4 µM | SW-620 95.9 µM | HOP-92 32.1 µM | 786-0 > 100 µM | SK-MEL-5 13.3 µM | OVCAR-4 48.4 µM | A549 > 100 µM | CAKI-1 77.6 µM | UACC-62 22 µM

C/C=C/C=N/N(C(=O)c1cc([N+](=O)[O-])cc([N+](=O)[O-])c1)C1=NN=C(c2ccccc2)C(c2ccccc2)N1 (stereo not drawn)
inactive: M14 33.3 µM | IGROV-1 > 100 µM | OVCAR-3 23.4 µM | COLO 205 30.5 µM | CCRF-CEM 36.7 µM | HCT-116 30.2 µM | KM12 46.2 µM | UACC-257 26.5 µM | SW-620 55 µM | HOP-92 11.1 µM | 786-0 80.4 µM | SK-MEL-5 27.2 µM | OVCAR-4 68.4 µM | A549 61.2 µM | CAKI-1 > 100 µM | UACC-62 51.8 µM

CN(C)c1c([O-])c(=[N+](C)C)c1=O
inactive: M14 > 100 µM | IGROV-1 > 100 µM | OVCAR-3 > 100 µM | SR > 100 µM | CCRF-CEM > 100 µM | HCT-116 > 100 µM | KM12 > 100 µM | UACC-257 > 100 µM | SW-620 > 100 µM | HOP-92 > 100 µM | 786-0 > 100 µM | A549 > 100 µM | CAKI-1 > 100 µM | UACC-62 > 100 µM

CC(C)(C)OC1=C(OC(C)(C)C)C(O)(c2ccc(Cl)cc2)C1=O (stereo not drawn)
inactive: M14 > 100 µM | IGROV-1 > 100 µM | OVCAR-3 > 100 µM | COLO 205 > 100 µM | SR > 100 µM | CCRF-CEM > 100 µM | KM12 > 100 µM | SW-620 > 100 µM | 786-0 > 100 µM | SK-MEL-5 > 100 µM | OVCAR-4 > 100 µM | A549 > 100 µM | UACC-62 > 100 µM

C=C1C[C@]23CCC4C(C)(C)C(=O)CC[C@]4(C)C2C[C@H]1C(O)C3=O (stereo partly drawn)
inactive: M14 > 75 µM | IGROV-1 > 75 µM | OVCAR-3 > 75 µM | COLO 205 > 75 µM | SR > 75 µM | CCRF-CEM > 75 µM | KM12 > 75 µM | UACC-257 > 75 µM | SW-620 > 75 µM | 786-0 > 75 µM | SK-MEL-5 > 75 µM | OVCAR-4 > 75 µM | A549 > 75 µM | UACC-62 > 75 µM

C[C@H]1CCC2C(CN3CCCCC3)C(=O)OC2[C@]2(C)C(=O)CC(N3CCCCC3)C12O (stereo partly drawn)
inactive: IGROV-1 18.8 µM | OVCAR-3 4.48 µM | COLO 205 4.69 µM | SR 2.49 µM | CCRF-CEM 2.34 µM | HCT-116 2.94 µM | KM12 3.09 µM | UACC-257 3.1 µM | SW-620 3.64 µM | HOP-92 2.68 µM | 786-0 4.54 µM | SK-MEL-5 4.73 µM | A549 28.2 µM | CAKI-1 15.7 µM | UACC-62 2.36 µM

O=C1c2ccc(O)cc2C(=O)c2ccc(O)cc21
inactive: M14 58.9 µM | IGROV-1 48.3 µM | OVCAR-3 78.5 µM | COLO 205 > 100 µM | CCRF-CEM 59.3 µM | HCT-116 39.4 µM | KM12 88.7 µM | UACC-257 > 100 µM | SW-620 92.5 µM | HOP-92 63.1 µM | 786-0 42.7 µM | SK-MEL-5 > 100 µM | OVCAR-4 > 100 µM | A549 54.6 µM | CAKI-1 32.9 µM | UACC-62 56.8 µM
